PubChem BioAssay (NCI)
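Test compounds were applied to cells in 96-well plates for 48 hours at 5 doses. The concentration for 50% growth inhibition is given as GI50. TGI denotes the concentration required for complete inhibition of growth.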

Assays:
Test in all cases: NCI anticancer screen, dose series, 48 h
IGROV1 ovarian = test system: IGROV1 ovarian
HCC-2998 colon = test system: HCC-2998 colon
SK-MEL-2 melanoma = test system: SK-MEL-2 melanoma
UO-31 renal = test system: UO-31 renal
NCI-H522 lung = test system: NCI-H522 lung
OVCAR-5 ovarian = test system: OVCAR-5 ovarian
BT-549 breast = test system: BT-549 breast
M14 melanoma = test system: M14 melanoma
SF-268 CNS = test system: SF-268 CNS
MDA-MB-231 breast = test system: MDA-MB-231 breast
UACC-257 melanoma = test system: UACC-257 melanoma
MCF7 breast = test system: MCF7 breast
HOP-62 NSCLC = test system: HOP-62 NSCLC
HT29 colon = test system: HT29 colon
SNB-75 CNS = test system: SNB-75 CNS
LOX IMVI melanoma = test system: LOX IMVI melanoma
MOLT-4 leukemia = test system: MOLT-4 leukemia
SK-OV-3 ovarian = test system: SK-OV-3 ovarian
SW-620 colon = test system: SW-620 colon
MALME-3M melanoma = test system: MALME-3M melanoma
HL-60(TB) leukemia = test system: HL-60(TB) leukemia
U251 CNS = test system: U251 CNS
RXF 393 renal = test system: RXF 393 renal
A549 NSCLC = test system: A549 NSCLC
786-0 renal = test system: 786-0 renal
EKVX NSCLC = test system: EKVX NSCLC
SN12C renal = test system: SN12C renal
HS 578T breast = test system: HS 578T breast
HOP-92 NSCLC = test system: HOP-92 NSCLC
NCI-H460 lung = test system: NCI-H460 lung
TK-10 renal = test system: TK-10 renal
ACHN renal = test system: ACHN renal
RPMI-8226 leukemia = test system: RPMI-8226 leukemia
PC-3 prostate = test system: PC-3 prostate
A498 renal = test system: A498 renal
NCI-H226 lung = test system: NCI-H226 lung
NCI/ADR-RES ovarian = test system: NCI/ADR-RES ovarian
DU-145 prostate = test system: DU-145 prostate
UACC-62 melanoma = test system: UACC-62 melanoma
MDA-MB-435 = test system: MDA-MB-435
SK-MEL-5 melanoma = test system: SK-MEL-5 melanoma
K-562 leukemia = test system: K-562 leukemia
SNB-19 CNS = test system: SNB-19 CNS
SK-MEL-28 melanoma = test system: SK-MEL-28 melanoma
OVCAR-8 ovarian = test system: OVCAR-8 ovarian
SR leukemia = test system: SR leukemia
CAKI-1 renal = test system: CAKI-1 renal
COLO 205 colon = test system: COLO 205 colon
HCT-15 colon = test system: HCT-15 colon
CCRF-CEM leukemia = test system: CCRF-CEM leukemia
SF-539 CNS = test system: SF-539 CNS
HCT-116 colon = test system: HCT-116 colon
OVCAR-3 ovarian = test system: OVCAR-3 ovarian
T-47D breast = test system: T-47D breast
OVCAR-4 ovarian = test system: OVCAR-4 ovarian

Compound: COc1ccc(NC(=O)[C@H](C)NC(=O)OC(C)(C)C)cc1C(=O)Nc1cccc(-c2cc(=O)c3c(OC)c(OC)c(OC)cc3o2)c1
- GI50 (IGROV1 ovarian): 3.25 µM
- TGI (IGROV1 ovarian): > 100 µM
- GI50 (HCC-2998 colon): 1.76 µM
- TGI (HCC-2998 colon): 3.21 µM
- GI50 (SK-MEL-2 melanoma): 1.8 µM
- TGI (SK-MEL-2 melanoma): 4.29 µM
- GI50 (UO-31 renal): 2.4 µM
- TGI (UO-31 renal): > 100 µM
- GI50 (NCI-H522 lung): 1.72 µM
- TGI (NCI-H522 lung): 3.99 µM
- GI50 (OVCAR-5 ovarian): 2.01 µM
- TGI (OVCAR-5 ovarian): 5.23 µM
- GI50 (BT-549 breast): 1.52 µM
- TGI (BT-549 breast): 2.99 µM
- GI50 (M14 melanoma): 2.98 µM
- TGI (M14 melanoma): 7.94 µM
- GI50 (SF-268 CNS): 3.41 µM
- TGI (SF-268 CNS): > 100 µM
- GI50 (MDA-MB-231 breast): 1.83 µM
- TGI (MDA-MB-231 breast): 3.99 µM
- GI50 (UACC-257 melanoma): 1.99 µM
- TGI (UACC-257 melanoma): 3.8 µM
- GI50 (MCF7 breast): 2.72 µM
- TGI (MCF7 breast): 9.52 µM
- GI50 (HOP-62 NSCLC): 2.14 µM
- TGI (HOP-62 NSCLC): 5.18 µM
- GI50 (HT29 colon): 1.88 µM
- TGI (HT29 colon): 3.87 µM
- GI50 (SNB-75 CNS): 1.46 µM
- TGI (SNB-75 CNS): 3.2 µM
- GI50 (LOX IMVI melanoma): 1.59 µM
- TGI (LOX IMVI melanoma): 3.11 µM
- GI50 (MOLT-4 leukemia): 1.71 µM
- TGI (MOLT-4 leukemia): 7.9 µM
- GI50 (SK-OV-3 ovarian): 2.3 µM
- TGI (SK-OV-3 ovarian): 4.87 µM
- GI50 (SW-620 colon): 2.93 µM
- TGI (SW-620 colon): 8.64 µM
- GI50 (MALME-3M melanoma): 2.48 µM
- TGI (MALME-3M melanoma): 6.73 µM
- GI50 (HL-60(TB) leukemia): 2.07 µM
- TGI (HL-60(TB) leukemia): 4.96 µM
- GI50 (U251 CNS): 2.46 µM
- TGI (U251 CNS): 6.61 µM
- GI50 (RXF 393 renal): 1.89 µM
- TGI (RXF 393 renal): 3.37 µM
- GI50 (A549 NSCLC): 2.94 µM
- TGI (A549 NSCLC): 10.9 µM
- GI50 (786-0 renal): 3.03 µM
- TGI (786-0 renal): > 100 µM
- GI50 (EKVX NSCLC): 3.17 µM
- TGI (EKVX NSCLC): > 100 µM
- GI50 (SN12C renal): 2.38 µM
- TGI (SN12C renal): 7.34 µM
- GI50 (HS 578T breast): 2.64 µM
- TGI (HS 578T breast): 9.44 µM
- GI50 (HOP-92 NSCLC): 0.37 µM
- TGI (HOP-92 NSCLC): 4.14 µM
- GI50 (NCI-H460 lung): 2.31 µM
- TGI (NCI-H460 lung): 5.24 µM
- GI50 (TK-10 renal): 2.04 µM
- TGI (TK-10 renal): 7.78 µM
- GI50 (ACHN renal): 3.34 µM
- TGI (ACHN renal): > 100 µM
- GI50 (RPMI-8226 leukemia): 1.55 µM
- TGI (RPMI-8226 leukemia): 5.07 µM
- GI50 (PC-3 prostate): 2.95 µM
- TGI (PC-3 prostate): > 100 µM
- GI50 (A498 renal): 3.35 µM
- TGI (A498 renal): 32.7 µM
- GI50 (NCI-H226 lung): 1.8 µM
- TGI (NCI-H226 lung): 3.84 µM
- GI50 (NCI/ADR-RES ovarian): 8.01 µM
- TGI (NCI/ADR-RES ovarian): > 100 µM
- GI50 (DU-145 prostate): 3.86 µM
- TGI (DU-145 prostate): > 100 µM
- GI50 (UACC-62 melanoma): 1.7 µM
- TGI (UACC-62 melanoma): 3.33 µM
- GI50 (MDA-MB-435): 2 µM
- TGI (MDA-MB-435): 4.11 µM
- GI50 (SK-MEL-5 melanoma): 1.47 µM
- TGI (SK-MEL-5 melanoma): 2.99 µM
- GI50 (K-562 leukemia): 2.55 µM
- TGI (K-562 leukemia): > 100 µM
- GI50 (SNB-19 CNS): 3.56 µM
- TGI (SNB-19 CNS): > 100 µM
- GI50 (SK-MEL-28 melanoma): 2.5 µM
- TGI (SK-MEL-28 melanoma): 5.72 µM
- GI50 (OVCAR-8 ovarian): 1.7 µM
- TGI (OVCAR-8 ovarian): 5.47 µM
- GI50 (SR leukemia): 2.37 µM
- TGI (SR leukemia): > 100 µM
- GI50 (CAKI-1 renal): 3.06 µM
- TGI (CAKI-1 renal): > 100 µM
- GI50 (COLO 205 colon): 1.87 µM
- TGI (COLO 205 colon): 3.59 µM
- GI50 (HCT-15 colon): 2.38 µM
- TGI (HCT-15 colon): 7.27 µM
- GI50 (CCRF-CEM leukemia): 1.86 µM
- TGI (CCRF-CEM leukemia): 8.26 µM
- GI50 (SF-539 CNS): 1.88 µM
- TGI (SF-539 CNS): 4.12 µM
- GI50 (HCT-116 colon): 2.05 µM
- TGI (HCT-116 colon): 4.63 µM
- GI50 (OVCAR-3 ovarian): 2.13 µM
- TGI (OVCAR-3 ovarian): 4.43 µM
- GI50 (T-47D breast): 1.7 µM
- TGI (T-47D breast): 5.97 µM
- GI50 (OVCAR-4 ovarian): 3.13 µM
- TGI (OVCAR-4 ovarian): > 100 µM
